Source: patent publication US20050142254A1 (priority 2003, published 2005)
Read-outs that look alike come from different tables or passages of the source.

Tests used:
umu gene = format: cell-based
Description: Mutagenecity test was performed with the AFB1 degradation reaction mixture after hemin treatment. In the test, a conventional mutagenicity test kit “Umlac” (Nippon Antibody Laboratory) was used. Umlac is a kit for short-period mutagenicity test, umu-test, which was developed by Shinagawa (Research Institute for Microbial Diseases, Osaka University), et al. The test is to measure the expression level of umu gene using β-galactosidase activity as an index. The umu gene is considered to be a kind of SOS gene whose expression is induced by DNA-damaging chemicals, and known to be directly concerned with mutation. It has been confirmed that test result of “Umlac” well correlates with those of the Ames test and the carcinogenicity test that are currently used for typical mutagenicity test.
(§1) AFB1 degradation was performed at 50° C. for 6 hours in the presence or absence of hemin with the same reaction mixture as used in Example 1. After the reaction, the reaction mixture was subjected to the mutagenicity test with Umlac. Ten percent of DMSO aqueous solution was prepared as a control without AFB1, and then subjected to the same mutagenicity test.
Higher umu gene expression represents higher mutagenicity. The control value represents no mutagenicity.

[1] = format: biochemical
Description: […]. Here, 25 μL of 400 μM hemin suspension was added to it and incubated at 30° C. for 30 minutes. The final concentration of each component was: AFB1, 16 μM; hydrogen peroxide, 500 μM; Tween 80, 1%; hemin, 100 μM.
After the reaction, HPLC and TLC analyses were performed to confirm the degradation of AFB1 and the formation of reaction product. The equal amount of ethyl acetate was added to the reaction mixture, and extraction was done by mixing with a Voltex mixer for 1 minute. The resulting mixture was centrifuged at 10,000×g for 2 minutes, and the ethyl acetate layer (upper layer) was recovered in a new 0.5-mL microtube.
The extract was used for HPLC analysis in succession. The separation column used was a silica column, Shim-pack CLC-SIL (0.46×15 cm). […].
AFB1 degradation was performed at 30° C. for 30 minutes in the same manner as in Example 1 except that the amount of hemin added was varied.
After the reaction, the amount of remaining AFB1 and that of AFQ1 formed were measured quantitatively by HPLC.
AFB1 degradation was performed at 30° C. for 30 minutes in the same manner as in Example 1 except that the amount of hydrogen peroxide added was varied.
After the reaction, amount of the remaining AFB1 and that of AFQ1 formed were measured quantitatively by HPLC.
as §1

[2] = format: physicochemical
Description: (§2) We also confirmed that AFQ1 degradation is accelerated by heat, and it occurs non-enzymatically. Horseradish peroxidase (HRP) has a strong AFB1-degrading activity as well as hemin.

[3] = format: biochemical; remark: listed apart in the source
Description: as §2

[4] = format: biochemical; details: pH 7.5
[5] = Bisphenol A (BPA) degradation with hemin, HPLC; format: biochemical; details: 100 μM hemin, 400 μM BPA, 500 μM hydrogen peroxide, 30° C., reaction for 6 hours
Description: […]. hydrogen peroxide, 500 μM; Tween 80, 1%; hemin, 100 μM.
BPA degradation was confirmed by HPLC. After the reaction, a portion (100 μL) of the reaction mixture was taken, added to the equal amount of ethyl acetate, and extracted for 1 minute by mixing with a Voltex mixer. The mixture was centrifuged at 10,000×g for 2 minutes, and the ethyl acetate layer (upper layer) was recovered in a new 0.5-mL microtube.
HPLC analysis was conducted using the extract. The column used was STR ODS-II (0.46×15 cm). For the mobile phase for BPA quantification, 50% acetonitrile aqueous solution containing 0.1% trifluoroacetic acid was used at the flow rate of 0.7 mL/min. A UV-visible spectrophotometric detector (Shimadzu SPD-6AV) was used at the absorbance wave length of 277 nm for BPA detection.
For the mobile phase for the detection of BPA degradation product, 30% acetonitrile aqueous solution containing 0.1% trifluoroacetic acid was used at the flow rate of 0.5 mL/min. The absorbance at wave length of 280 nm was monitored for this detection.

[6] = Aniline degradation with hemin, HPLC; format: biochemical; details: 10 μM hemin, 50 μM aniline, 500 μM hydrogen peroxide, 30° C., reaction for 3 hours
Description: […]. Under this condition, the reaction mixture was uniform, thus no detergent was added to it.
After the reaction, equal amount of ethyl acetate was added to the reaction mixture, and extraction was done by mixing with a Voltex mixer for 1 minute, and then centrifuged at 10,000×g for 2 minutes. The resulting aniline-containing ethyl acetate layer (upper layer) was recovered in a new 0.5-mL microtube.
The ethyl acetate extract was directly subjected to HPLC analysis to determine the amount of remaining aniline. The column used was STRODS-II (0.46×15 cm). For mobile phase, 10% acetonitrile aqueous solution was used at the flow rate of 0.5 mL/min. With a UV-visible spectrophotometric detector (Shimadzu SPD-6AV), the absorbance at wave length of 280 nm was monitored for aniline detection.

COc1cc2c(c3oc(=O)c4c(c13)CCC4=O)C1C=COC1O2 (stereo not shown) [AFB1, aflatoxin B1]
umu Gene Expression (OD620) (umu gene): 1.185
remaining AFB1 [1]: 12 µM

COc1cc2c(c3oc(=O)c4c(c13)C(O)CC4=O)C1C=COC1O2 (stereo not shown) [AFQ1, aflatoxin Q1]
AFQ1 degradation, effect of temperature [2]: degraded much rapidly at 50 °C than 30 °C

HRP: Horseradish peroxidase
AFQ1-degradation rate, presence vs absence of HRP ([2]; 1 μM AFQ1 in phosphate buffer, 30° C. or 50° C.): no significant difference
AFB1-degrading activity [3]: strong

hemin
aflatoxin M1 disappeared [4]: 36%
umu Gene Expression (OD620) (umu gene; reaction mixture with AFB1 and hemin, treatment at 50° C. for 6 hours): 0.523
AFB1 degraded ([1]; 200 μM hemin, 16 μM AFB1, 30° C. for 30 minutes): approximately 25%
change in AFB1-degradation efficiency depending on hydrogen peroxide concentration ([1]; hemin, hydrogen peroxide 1.0 mM to 10 mM, 30° C. for 30 minutes): no significant increase
remaining AFB1 ([1]; reaction mixture with hemin, 16 μM AFB1, 50° C. for 6 hours): ≤ 0.16 µM
AFB1 added degraded ([1]; reaction mixture with hemin, 50° C. for 6 hours): more than 99%
amount of BPA relative to that initially added [5]: 18%
aniline relative to that initially added [6]: 45%
